Holding throughout (assay): relative viability (nuclei count vs DMSO), 5 days (fraction); higher = more cells survive
Compound in experiment [1]: CC1=CC(=CC=C1)NC2=NC(=CS2)C3=CC=NC=C3 + CC(=O)Nc1cccc(-n2c(=O)n(C3CC3)c(=O)c3c(Nc4ccc(I)cc4F)n(C)c(=O)c(C)c32)c1 [Trametinib] (partner 0.02 µM)
In outline:
(§1)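 Lung cancer cell lines, seeded in 1536-well plates, were treated the following day by pin tool with a single drug or with five library-drug doses (not always all listed) in √10 steps on top of a fixed anchor-drug dose. Cells were fixed and nuclei stained in one step after 5 days, and nuclei were counted. Relative viability is the nuclei count for treated wells divided by that for vehicle wells, reported as medians of duplicate plates.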

Compound in experiment [2]: CC1=CC(=CC=C1)NC2=NC(=CS2)C3=CC=NC=C3 + Nc1ncn([C@H]2C[C@H](O)[C@@H](CO)O2)c(=O)n1 [Decitabine] (partner 2 µM)
The gist of the method: as §1

Compound in the experiment “Masitinib + Alpelisib”: Cc1ccc(NC(=O)c2ccc(CN3CCN(C)CC3)cc2)cc1Nc1nc(-c2cccnc2)cs1 [Masitinib] + Cc1nc(NC(=O)N2CCC[C@H]2C(N)=O)sc1-c1ccnc(C(C)(C)C(F)(F)F)c1 [Alpelisib] (partner 2 µM)
In outline: as §1

Compound in the experiment “Masitinib + Crizotinib”: Cc1ccc(NC(=O)c2ccc(CN3CCN(C)CC3)cc2)cc1Nc1nc(-c2cccnc2)cs1 [Masitinib] + C[C@@H](Oc1cc(-c2cnn(C3CCNCC3)c2)cnc1N)c1c(Cl)ccc(F)c1Cl [Crizotinib] (partner 1 µM)
The gist of the method:
as §1

Turning to UMC-11, the relative viability in experiment [1] (first compound 0.08 µM) was found to be 0.555; in experiment [1] (first compound 0.253 µM) it was 0.737; in experiment [1] (first compound 0.8 µM) it was 0.731; in experiment [1] (first compound 2.53 µM), 0.768; in experiment [1] (first compound 8 µM), 0.764; in experiment [2] (first compound 0.08 µM), 0.56. For the same cell line, the relative viability in experiment [2] (first compound 0.253 µM) amounted to 0.552; in experiment [2] (first compound 0.8 µM) it was 0.572; in experiment [2] (first compound 2.53 µM) it was 0.626; in experiment [2] (first compound 8 µM) it was 0.714; with Masitinib + Alpelisib (first compound 0.01 µM), 0.899; in the experiment with Masitinib + Alpelisib (first compound 0.03162 µM), 0.713. The relative viability with Masitinib + Alpelisib (first compound 0.1 µM) came to 1.12; with Masitinib + Alpelisib (first compound 0.3162 µM) it was 1.17; with Masitinib + Alpelisib (first compound 1 µM) it was 1.2; with Masitinib + Crizotinib (first compound 0.01 µM) it was 0.467; with Masitinib + Crizotinib (first compound 0.03162 µM), 0.677; with Masitinib + Crizotinib (first compound 0.1 µM), 0.706. Also, the relative viability was 0.571 with Masitinib + Crizotinib (first compound 0.3162 µM) and 0.691 in the experiment with Masitinib + Crizotinib (first compound 1 µM).

The record behind these values is the supplement of paper PMC10307832.
